Experimental findings from patent US20230248638A1, “A PERSONAL CARE COMPOSITION COMPRISING ATRACTYLENOLIDE-I OR A SOURCE THEREOF” (Conopco, Inc., d/b/a UNILEVER, priority 2020, published 2023) are described below.

This experiment relates to Normal human epidermal melanocytes (NHEM). Nature of the experiment: Melanin content quantification in melanocytes. Type of experiment: cell-based. The note with it: 72 hours treatment, concentration as in Treatment column, melanin normalized to relative cell viability. The protocol:
Normal human epidermal melanocytes (NHEM) (Biocell, Xi'an, China) were grown in melanocyte growth medium (MGM, Promocell, Germany) with human melanocyte growth supplement (Promocell, Germany). NHEM cells were seeded at a density of 4×10^4 cells in 500 μL MGM/well in a 24-well plate and incubated for 48 hours in an incubator (Thermo Scientific, Model 3111) at 37° C. with 5% CO2. After 48 hours, media was replaced with fresh media containing test samples (as per Table 1) for the following 72 hours.
After CCK8 absorbance readings were obtained, cells were lysed by lysis buffer at 60° C. for 1 hr. Then, 50 μL cell lysate was transferred to a new 96-well plate and absorbance was measured at 405 nm using TECAN plate reader. Serial dilutions of pure melanin were prepared as references.
The melanin content was calculated from the melanin standard curve. The melanin concentrations (μg/mL) were then normalized to the relative cell viability. The melanin inhibition rates were then calculated using the following equation: […]

`C=C1CCC[C@]2(C)C=C3OC(=O)C(C)=C3C[C@@H]12` [D, Atractylenolide -1]: the “Melanin inhibition rate (% inhibition)” value is listed as 7.8 ± 2.80 % inhibition. For `CCCCCCC(O)CCCCCCCCCCC(=O)O` (centres unmarked) [Example B, 12 hydroxystearic acid] the value was 5.6 ± 3.03 % inhibition.
